From PMC12567098, “Multi-Kinase Inhibition by New Quinazoline–Isatin Hybrids: Design, Synthesis, Biological Evaluation and Mechanistic Studies” (Pharmaceuticals, 2025)

How the values were obtained:
WI38 = experiment: MTT cytotoxicity assay, normal fibroblast WI38; type: cell-based; details: Homo sapiens, WI-38, 48 h, normal fibroblast cell line WI38
Source text: (§1) Doxorubicin and sunitinib were used as positive controls for comparison.
(§2) The MTT assay is widely used to measure cell proliferation, cell viability, and cytotoxicity. It is based on reducing MTT dye into formazan crystals by living cells, determining mitochondrial activity.
(§3) 3.4. Biological Screening
(§4) Four cancer celllines; Hepatocellular carcinoma (HepG2), Breast adenocarcinoma (MCF-7), Breast adenocarcinoma […]
(§5) from American Type Culture Collection (ATCC, USA) via Holding company for biological products and vaccines (VACSERA), Cairo, Egypt. Antibiotic solutions and sterilesolutions were purchased from Sigma-Aldrich.
(§6) 3.4.2. Cytotoxicity Assay […]
(§7) dimethylthiazol-2-yl)-2,5-diphenyltetrazolium bromide) assay.[41–43] MTT assay is widely used to measure cell proliferation, cell viability, and cytotoxicity. It is based on reducing MTT dye into formazan crystals by living cells, determining mitochondrial activity.[44] For the assay, cells were seeded in Dulbecco’s modified minimum essential medium (DMEM) at a density of 1.0× 10^4 cells/well in 96-well plates, supplemented with 10% FBS and 5% CO2 at 37 °C for 24 h. To each well, a test compound was added at different concentrations .Each concentration was examined three times. Then the cells were treated with the compounds at 37 °C under 5 % CO2 for 48 h. Following this, MTT dye was added to each well at a final concentration of 0.5 mg/ml. Cells were treated with this tetrazolium dye for 4 h. Next, […]
(§8) dissolved by adding 100 µl dimethyl sulfoxide (DMSO), and the absorbance in each well was recorded at 570 nm in a […]
(§9) Absorbance at 570nm directly correlates with cell viability. IC50 (μM) values were determined using Graph Pad Prism software version 5 (Graph Pad Software Inc, CA). The cells were also treated with Doxorubicin; a standard anticancer drug used as positive control.

HepG2 = experiment: MTT cytotoxicity assay, HepG2; type: cell-based; details: Homo sapiens, 48 h
Description: (§10) The synthesized isatin–quinazoline compounds (6a–d) were assessed for their cytotoxicity against four cancer cell lines, namely, hepatocellular carcinoma HepG2, breast carcinoma MCF-7, breast adenocarcinoma MDA-MB-231, and cervical carcinoma HeLa, using an MTT colorimetric assay. Doxorubicin and sunitinib were used as positive controls for comparison. The antiproliferative activities are expressed as the median growth inhibitory concentration (IC50) in micromolar range and are described in Table 1.
as §2, with “Cytotoxicity of the synthesized compounds 6a–d was assessed by performing a colorimetric MTT (3-(4,5-dimethylthiazol-2-yl)-2,5-diphenyltetrazolium bromide) assay. The” for “The”
as §3
(§11) Four cancer celllines; Hepatocellular carcinoma (HepG2), Breast adenocarcinoma (MCF-7), Breast adenocarcinoma (MDA-MB-231), and Cervical carcinoma (HeLa) and normal fibroblast cell line (WI38) used in this study were obtained from American Type Culture Collection (ATCC, USA) via Holding company for biological products and vaccines (VACSERA), Cairo, Egypt. Antibiotic solutions and sterilesolutions were purchased from Sigma-Aldrich.
(§12) 3.4.2. Cytotoxicity Assay
(§13) Cytotoxicity of the synthesized compounds 6a-d was done by performing a colorimetric MTT ( 3-(4,5-dimethylthiazol-2-yl)-2,5-diphenyltetrazolium bromide) assay.[41–43] MTT assay is widely used to measure cell proliferation, cell viability, and cytotoxicity. It is based on reducing MTT dye into formazan crystals by living cells, determining mitochondrial activity.[44] For the assay, cells were seeded in Dulbecco’s modified minimum essential medium (DMEM) at a density of 1.0× 10^4 cells/well in 96-well plates, supplemented with 10% FBS and 5% CO2 at 37 °C for 24 h. To each well, a test compound was added at different concentrations .Each concentration was examined three times. Then the cells were treated with the compounds at 37 °C under 5 % CO2 for 48 h. Following this, MTT dye was added to each well at a final concentration of 0.5 mg/ml. Cells were treated with this tetrazolium dye for 4 h. Next, purple crystals of formazan were noticed in each well, formed as a metabolic product of MTT. These crystals were dissolved by adding 100 µl dimethyl sulfoxide (DMSO), and the absorbance in each well was recorded at 570 nm in a microplate reader (EXL 800, USA). Absorbance at 570nm directly correlates with cell viability. IC50 (μM) values were determined using Graph Pad Prism software version 5 (Graph Pad Software Inc, CA). The cells were also treated with Doxorubicin; a standard anticancer drug used as positive control.

MCF-7 = experiment: MTT cytotoxicity assay, MCF-7; type: cell-based; details: Homo sapiens, MCF7, 48 h
Source text: as §1, §2, §3, §4, §5, §6, §7, §8, §9

MDA-MB-231 = experiment: MTT cytotoxicity assay, MDA-MB-231; type: cell-based; details: Homo sapiens, 48 h
Description: as §10
as §2, with “Cytotoxicity of the synthesized compounds 6a–d was assessed by performing a colorimetric MTT (3-(4,5-dimethylthiazol-2-yl)-2,5-diphenyltetrazolium bromide) assay. The” for “The”
as §3, §11, §12, §13

HeLa = experiment: MTT cytotoxicity assay, HeLa; type: cell-based; details: Homo sapiens, 48 h
Source text: as §1, §2, §3, §4, §5, §6, §7, §8, §9

HepG2 cells [1] = experiment: Propidium iodide flow cytometry cell cycle analysis; type: cell-based; details: HepG2, 2.6 μM, 24 h
Description: Its impacts on cell cycle progression and induction of apoptosis were investigated. The effect of compound 6c on the regulation of the cell cycle progression was studied using a Propidium Iodide Flow Cytometry Kit assay. Alterations in the cell cycle were recorded after the treatment of HepG2 cells with 2.6 μM of compounds 6c, chosen for its excellent antiproliferative activities within 24 h.
Cell cycle arrest and distribution were evaluated using a Propidium Iodide Flow Cytometry Kit (ab139418, Abcam, Cambridge, MA, USA) followed by flow cytometry analysis.
3.4.3. Flow cytometry cell cycle analysis
Cell cycle arrest and distribution were evaluated using the Propidium Iodide Flow Cytometry Kit (ab139418, Abcam) followed by flow cytometry analysis.[45,46] First, HepG2 cells were cultured at a density of 2 × 10^5/well for 24 h in the presence of tested newly synthesized compounds 6c (2.6 μM) (control cells were left untreated and both measurements were done in triplicate). Then, the attached cells were supplemented with trypsin, washed with ice-cold PBS, centrifuged, and fixed using ice -cold 70% ethanol. Next, cells were re -suspended and stored at +4 °C for at least 2 h. After that, cells were incubated with 200 μL 1X Propidium Iodide (PI) + RNase Staining Solution for 30 min at 37 °C in the dark. The DNA content in each cell nucleus was determined by Epics XL -MCL™ flow cytometer (Beckman -Coulter, USA). Finally, cell cycle phase distribution was analyzed using Flowing software 2.5.1 (Turku Centre for Biotechnology, University of Turku, Turku, Finland). […]
University of Turku, Turku, Finland).

HepG2 cells [2] = experiment: Annexin V-FITC/PI dual-staining apoptosis assay; type: cell-based; details: HepG2, 2.6 μM (IC50), 24 h
Description: Apoptosis can be detected by measuring translocated phosphatidylserine (PS) from the interior to the surface of the cell membrane. Therefore, an annexin V-FITC/PI (fluorescein–isothiocyanate/propidium iodide) dual staining flow cytometric assay was carried out for compound 6c to investigate the mechanism of cell death induced by the assessed compound.
The apoptosis assay was performed with an annexin V-FITC/PI double staining apoptosis detection kit (K101, BioVision Inc., Mountain View, CA, USA) using a flow cytometer. Experimental procedures are described in detail in theSupplementary Information. […]
3.4.4. Annexin V-FITC Dual-Staining Apoptosis Assay
Apoptosis assay was performed with an Annexin V-FITC / PI double staining apoptosis detection kit (K101, BioVision Inc, Mountain View, CA, USA) using a flow cytometer.[47,48] […]
concentration (2.6 μM) for 24 h. After treatment, the cells were collected, washed two times with PBS, and resuspended in 500 µL binding buffer. Next, annexin V-FITC (5 µL ) and propidium iodide (PI) 5 µL were intruduced to the suspension and the cells were left in the dark for 15 min at room temperature. Samples were then recorded by Epics XL-MCL™ flow cytometer (Beckman- Coulter, USA) and Flowing software (Turku Centre for Biotechnology, University of Turku, Turku, Finland).

Bax = experiment: RT-qPCR gene expression analysis, Bax; type: cell-based; details: HepG2, RT-qPCR, fold vs untreated = 1
Source text: (§14) One significant anticancer mechanism is apoptosis. Drugs that induce apoptosis cause simultaneous or subsequent activation of death receptor systems, mitochondrial dysfunction, and caspase proteolytic processing. Thus, the cell death pathway may occur in several locations. In this study, the alteration in Bax, Bcl-2, and caspase-3 and 9 gene expression following the stimulation of apoptosis by 6c in HepG2 cells using the RT-qPCR method and staurosporine as a positive control is reported in Table 4.
(§15) 3.4.5. Gene Expression Analysis
(§16) After the RNA extraction,
(§17) reverse transcriptase enzyme.
(§18) The amplification reactions
(§19) The data were analyzed using a […]

Bcl-2 = experiment: RT-qPCR gene expression analysis, Bcl-2; type: cell-based; details: HepG2, RT-qPCR, fold vs untreated = 1
Source text: as §14, §15, §16, §17, §18, §19

Caspase-3 = experiment: RT-qPCR gene expression analysis, caspase-3; type: cell-based; details: HepG2, RT-qPCR, fold vs untreated = 1
Source text: as §14, §15, §16, §17, §18, §19

Caspase-9 = experiment: RT-qPCR gene expression analysis, caspase-9; type: cell-based; details: HepG2, RT-qPCR, fold vs untreated = 1
Source text: as §14, §15, §16, §17, §18, §19

CDK2 = target: T1, CDK2 (Homo sapiens, UniProt P24941); experiment: In vitro CDK2 kinase inhibitory assay (BPS kit, Kinase-Glo); type: biochemical; details: 40 min at 30 °C
T1 construct: purchased BPS Biosciences, San Diego, CA, USA

VEGFR-2 = target: T2, VEGFR-2 (Homo sapiens, UniProt P35968); experiment: In vitro VEGFR-2 kinase inhibitory assay (BPS kit, Kinase-Glo); type: biochemical; details: 40 min at 30 °C
T2 construct: purchased BPS Biosciences, San Diego, CA, USA

EGFR = EGFR (Homo sapiens, UniProt P00533); experiment: In vitro EGFR kinase inhibitory assay (BPS kit, Kinase-Glo)
Description: (§20) In vitro CDK2, EGFR, VEGFR -2, and HER2 Inhibitory Assays
(§21) using CDK2, EGFR, VEGFR -2, and HER2 Kinase Assay Kit (BPS Biosciences, San Diego, CA).[50] At first, CDK2, EGFR,
(§22) initi-ate the catalytic function of the enzymes. Detection reagent (Kinase-Glo® Max reagent) was the added to stop
(§23) the reaction, followed by incubation at room temperature for 15 min. Then the IC50 values were calculated by
(§24) measuring luminescence signal at 450 nm using a plate reader (Tecan Spark® 10M, Männedorf, Switzerland). All
(§25) assays were carried out based on protocol from manufacture. All samples and controls were tested in duplicate.

HER2 = HER2 (Homo sapiens, UniProt P04626); experiment: In vitro HER2 kinase inhibitory assay (BPS kit, Kinase-Glo); details: read-out: IC50 HER2, 40 min at 30 °C
Chain of HER2 (P04626 23-1255): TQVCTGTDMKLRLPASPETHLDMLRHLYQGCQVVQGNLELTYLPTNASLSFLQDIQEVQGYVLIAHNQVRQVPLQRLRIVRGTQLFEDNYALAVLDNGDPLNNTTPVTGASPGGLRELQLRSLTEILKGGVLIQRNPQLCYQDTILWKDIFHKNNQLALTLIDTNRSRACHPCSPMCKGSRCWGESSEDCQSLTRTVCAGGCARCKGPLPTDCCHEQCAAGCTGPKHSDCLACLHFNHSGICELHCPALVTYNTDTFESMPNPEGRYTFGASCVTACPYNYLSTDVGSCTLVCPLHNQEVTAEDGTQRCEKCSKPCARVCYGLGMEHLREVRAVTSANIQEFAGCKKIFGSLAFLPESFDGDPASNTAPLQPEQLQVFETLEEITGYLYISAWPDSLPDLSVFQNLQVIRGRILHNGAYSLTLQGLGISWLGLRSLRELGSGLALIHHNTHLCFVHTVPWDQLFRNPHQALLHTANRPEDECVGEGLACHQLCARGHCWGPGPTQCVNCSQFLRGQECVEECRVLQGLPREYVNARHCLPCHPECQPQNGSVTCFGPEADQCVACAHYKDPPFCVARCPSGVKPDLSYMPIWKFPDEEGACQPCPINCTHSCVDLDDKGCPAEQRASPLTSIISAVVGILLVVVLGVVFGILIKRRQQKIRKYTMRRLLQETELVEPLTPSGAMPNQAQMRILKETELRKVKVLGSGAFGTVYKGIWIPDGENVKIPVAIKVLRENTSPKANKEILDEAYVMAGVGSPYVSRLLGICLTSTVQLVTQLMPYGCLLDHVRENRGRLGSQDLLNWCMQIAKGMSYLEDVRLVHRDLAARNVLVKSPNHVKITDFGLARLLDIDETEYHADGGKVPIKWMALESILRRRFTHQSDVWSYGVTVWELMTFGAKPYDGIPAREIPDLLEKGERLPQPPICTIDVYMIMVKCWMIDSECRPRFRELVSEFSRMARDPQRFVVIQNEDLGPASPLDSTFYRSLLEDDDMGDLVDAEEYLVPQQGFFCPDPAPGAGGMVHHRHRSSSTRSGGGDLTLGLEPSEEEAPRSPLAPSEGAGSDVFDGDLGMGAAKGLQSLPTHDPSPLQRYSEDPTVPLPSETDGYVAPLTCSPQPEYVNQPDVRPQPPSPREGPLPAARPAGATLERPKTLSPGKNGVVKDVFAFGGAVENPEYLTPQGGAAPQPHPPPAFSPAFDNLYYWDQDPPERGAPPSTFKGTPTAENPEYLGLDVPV
Description: as §20, §21, §22, §23, §24, §25

Chain of EGFR (P00533 25-1210): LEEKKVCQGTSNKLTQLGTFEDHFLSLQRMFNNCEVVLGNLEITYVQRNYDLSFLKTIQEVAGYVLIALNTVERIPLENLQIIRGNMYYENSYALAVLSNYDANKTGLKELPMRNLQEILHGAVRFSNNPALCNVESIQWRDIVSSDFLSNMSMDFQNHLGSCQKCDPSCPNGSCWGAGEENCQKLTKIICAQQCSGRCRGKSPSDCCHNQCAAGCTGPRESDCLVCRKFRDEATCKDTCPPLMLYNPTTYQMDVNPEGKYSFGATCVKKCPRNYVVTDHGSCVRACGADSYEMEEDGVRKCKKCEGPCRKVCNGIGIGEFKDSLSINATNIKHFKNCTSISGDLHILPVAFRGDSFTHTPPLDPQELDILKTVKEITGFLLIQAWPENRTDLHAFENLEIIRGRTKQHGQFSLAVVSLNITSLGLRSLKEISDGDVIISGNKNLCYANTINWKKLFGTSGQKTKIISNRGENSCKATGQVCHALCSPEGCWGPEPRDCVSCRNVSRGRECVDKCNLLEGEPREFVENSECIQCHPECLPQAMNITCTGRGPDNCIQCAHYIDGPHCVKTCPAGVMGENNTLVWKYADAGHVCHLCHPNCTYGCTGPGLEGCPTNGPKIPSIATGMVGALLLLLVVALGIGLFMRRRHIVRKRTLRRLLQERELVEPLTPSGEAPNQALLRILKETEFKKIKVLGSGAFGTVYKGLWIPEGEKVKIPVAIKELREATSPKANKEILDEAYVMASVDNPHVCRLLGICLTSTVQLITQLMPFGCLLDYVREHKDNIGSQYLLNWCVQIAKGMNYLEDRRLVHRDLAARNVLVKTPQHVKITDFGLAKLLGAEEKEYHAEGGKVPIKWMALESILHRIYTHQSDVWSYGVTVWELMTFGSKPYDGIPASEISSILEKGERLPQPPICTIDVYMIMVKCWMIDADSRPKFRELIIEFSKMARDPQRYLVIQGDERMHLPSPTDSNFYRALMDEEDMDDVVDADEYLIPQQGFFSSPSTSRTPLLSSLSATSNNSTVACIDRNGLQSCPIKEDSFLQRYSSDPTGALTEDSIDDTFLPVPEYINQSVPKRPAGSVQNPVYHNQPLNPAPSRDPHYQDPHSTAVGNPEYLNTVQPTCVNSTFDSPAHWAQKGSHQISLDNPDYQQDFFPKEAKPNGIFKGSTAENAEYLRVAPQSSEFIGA
T2 sequence (P35968 20-1356): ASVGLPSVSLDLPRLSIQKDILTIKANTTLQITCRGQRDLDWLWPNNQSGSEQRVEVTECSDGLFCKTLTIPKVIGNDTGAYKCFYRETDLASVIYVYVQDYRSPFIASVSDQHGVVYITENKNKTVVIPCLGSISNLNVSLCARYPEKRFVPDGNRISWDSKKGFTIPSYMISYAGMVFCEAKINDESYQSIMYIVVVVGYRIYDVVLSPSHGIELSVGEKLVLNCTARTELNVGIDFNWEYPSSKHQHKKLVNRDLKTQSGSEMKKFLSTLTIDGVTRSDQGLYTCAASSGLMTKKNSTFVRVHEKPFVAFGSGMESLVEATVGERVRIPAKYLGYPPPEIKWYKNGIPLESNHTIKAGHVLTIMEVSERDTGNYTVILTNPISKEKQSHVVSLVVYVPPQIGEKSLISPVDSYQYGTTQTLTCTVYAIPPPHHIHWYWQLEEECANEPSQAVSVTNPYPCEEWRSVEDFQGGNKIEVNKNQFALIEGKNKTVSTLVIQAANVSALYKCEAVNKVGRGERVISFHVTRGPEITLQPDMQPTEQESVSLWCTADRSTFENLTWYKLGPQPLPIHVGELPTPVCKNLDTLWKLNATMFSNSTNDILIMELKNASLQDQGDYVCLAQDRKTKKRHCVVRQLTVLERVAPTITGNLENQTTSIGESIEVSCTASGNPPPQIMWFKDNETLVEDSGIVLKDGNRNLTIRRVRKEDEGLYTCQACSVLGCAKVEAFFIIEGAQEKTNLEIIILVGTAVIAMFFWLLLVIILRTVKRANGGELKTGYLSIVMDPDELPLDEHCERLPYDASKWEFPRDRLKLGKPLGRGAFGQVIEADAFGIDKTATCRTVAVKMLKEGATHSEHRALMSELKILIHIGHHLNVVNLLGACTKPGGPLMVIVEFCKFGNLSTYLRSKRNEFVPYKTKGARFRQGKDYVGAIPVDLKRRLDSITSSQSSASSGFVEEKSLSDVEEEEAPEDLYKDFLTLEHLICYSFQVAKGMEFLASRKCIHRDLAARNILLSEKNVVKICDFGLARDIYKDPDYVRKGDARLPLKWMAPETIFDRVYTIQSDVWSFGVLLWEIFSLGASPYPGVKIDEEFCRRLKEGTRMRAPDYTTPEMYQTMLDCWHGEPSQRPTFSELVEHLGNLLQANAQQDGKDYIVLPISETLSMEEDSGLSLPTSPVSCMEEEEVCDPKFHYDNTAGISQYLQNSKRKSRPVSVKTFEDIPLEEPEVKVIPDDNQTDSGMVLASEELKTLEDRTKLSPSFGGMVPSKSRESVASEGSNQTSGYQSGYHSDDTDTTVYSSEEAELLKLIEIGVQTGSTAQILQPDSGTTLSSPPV

Compound | IC50 (WI38) [µM] | IC50 (HepG2) [µM] | IC50 (MCF-7) [µM] | IC50 (MDA-MB-231) [µM] | IC50 (HeLa) [µM] | other results
O=C1Nc2ccc(Cl)cc2/C1=N/NC(=O)c1ccc(Nc2ncnc3ccccc23)cc1 [Compound 6b, (Z)-N′-(5-Chloro-2-oxoindolin-3-ylidene)-4-(quinazolin-4-ylamino)benzohydrazide] | > 100 | 61.4 ± 3.5 | 70.7 ± 3.4 | 56.3 ± 3.2 | 66.8 ± 3.4 | 
COc1cccc2c1C(=O)c1c(O)c3c(c(O)c1C2=O)C[C@@](O)(C(=O)CO)C[C@@H]3O[C@H]1C[C@H](N)[C@H](O)[C@H](C)O1 [Doxorubicin, reference compound] |  | 4.5 ± 0.2 |  |  |  | 
Cc1ccc2c(c1)/C(=N/NC(=O)c1ccc(Nc3ncnc4ccccc34)cc1)C(=O)N2 [Compound 6d, (Z)-N′-(5-Methyl-2-oxoindolin-3-ylidene)-4-(quinazolin-4-ylamino)benzohydrazide] | 65.8 ± 3.8 | 87.4 ± 4.5 | > 100 | 82.7 ± 4.3 | > 100 | 
CCN(CC)CCNC(=O)c1c(C)[nH]c(/C=C2\C(=O)Nc3ccc(F)cc32)c1C [Sunitinib, reference compound] | 43 ± 2.9 | 6.82 ± 0.5 | 5.19 ± 0.4 | 8.41 ± 0.7 | 7.48 ± 0.6 | 
O=C1Nc2ccccc2/C1=N/NC(=O)c1ccc(Nc2ncnc3ccccc23)cc1 [Compound 6a, (Z)-N′-(2-Oxoindolin-3-ylidene)-4-(quinazolin-4-ylamino) benzohydrazide] | 34.1 ± 2.6 | 7.98 ± 0.6 | 4.89 ± 0.3 | 6.24 ± 0.5 | 13.1 ± 0.9 | 
O=C1Nc2ccc(F)cc2/C1=N/NC(=O)c1ccc(Nc2ncnc3ccccc23)cc1 [Compound 6c, (Z)-N′-(5-Fluoro-2-oxoindolin-3-ylidene)-4-(quinazolin-4-ylamino)benzohydrazide] | 57.3 ± 3.3 | 2.61 ± 0.1 | 3.78 ± 0.2 | 5.18 ± 0.4 | 7.6 ± 0.5 | Cell Cycle Distribution (%) % Sub-G1 (HepG2 cells [1]): 42.79%; Cell Cycle Distribution (%) %G0–G1 (HepG2 cells [1]): 36.47%; Cell Cycle Distribution (%) %G2/M (HepG2 cells [1]): 9.92%; Cell Cycle Distribution (%) %S (HepG2 cells [1]): 53.61%; Necrosis (HepG2 cells [2]): 2.94; Apoptosis Induction Analysis Early (HepG2 cells [2]; in % (unit assumed)): 28.64; Apoptosis Induction Analysis Late (HepG2 cells [2]; in % (unit assumed)): 11.21; Apoptosis Induction Analysis Total (HepG2 cells [2]; in % (unit assumed)): 42.79; Protein Expression (Normalized to β-Actin) Bax (Bax): 4.585; Protein Expression (Normalized to β-Actin) Bcl-2 (Bcl-2): 0.185; Protein Expression (Normalized to β-Actin) Caspase-3 (Caspase-3): 10.13; Protein Expression (Normalized to β-Actin) Caspase-9 (Caspase-9): 2.795; IC50 (CDK2): 183 ± 10 nM; IC50 (VEGFR-2): 76 ± 4 nM; IC50 (EGFR): 83 ± 5 nM; IC50 (HER2): 138 ± 70 nM
CN[C@@H]1C[C@H]2O[C@@](C)([C@@H]1OC)n1c3ccccc3c3c4c(c5c6ccccc6n2c5c31)C(=O)NC4 [Staurosporine, reference compound] |  |  |  |  |  | Protein Expression (Normalized to β-Actin) Bax (Bax): 6.794; Protein Expression (Normalized to β-Actin) Bcl-2 (Bcl-2): 0.351; Protein Expression (Normalized to β-Actin) Caspase-3 (Caspase-3): 8.43; Protein Expression (Normalized to β-Actin) Caspase-9 (Caspase-9): 4.614
